# Tests used:
# Format in all cases: cell-based, human
# [1] = tested on: Sulfiredoxin (Srxn1) promoter; assay: Srxn1-luciferase reporter assay (PMA-dependent activation); conditions: U2oS cells, normalised to Renilla, n=3, p<0.05
# Experimental: From this primary screen, we concentrated on the PYC36-like, AP1-inhibitory Phylomers, and selected 14 initial hits. Of these, 7 (TABLE 2 and FIG. 8) were confirmed to inhibit AP1-luciferase activity in a secondary reporter assay normalised to Renilla luciferase expression (FIG. 2). Briefly, Phylomer DNA of the primary hits was re-prepared from the original clones selected for the mini-library (Endo-Free Maxi-Prep, Qiagen), and 5×10^5 U2oS cells were co-transfected with 800 ng DNA comprising AP1-luciferase or Srxn1-luciferase (Papadia et al., 2008) (Firefly), pRL-TK (Renilla) and Phylomer plasmid. Reporter activity/inhibition was calculated by normalizing Firefly activity to Renilla.
# As an additional confirmatory experiment, we asked whether these 6 Phylomers specifically regulated expression of a known AP1 target gene by testing their effect on the Sulfiredoxin (Srxn1) promoter, recently established as an AP1-dependent component of the anti-oxidant response mechanism (Papadia et al., 2008). Of the 6 Phylomers tested, 3 inhibited PMA-dependent activation of this promoter: 6G8, 25C3 and 48E6 (FIG. 3a). Importantly, these Phylomers had no effect upon PMA-induced transcription from a control Srxn1 promoter in which the AP1 response elements had been ablated by mutation (FIG. 3b), confirming that their effect on the Srxn1 promoter is AP1-specific.
# [2] = tested on: Srxn1 promoter containing mutated AP1 response elements; assay: Control Srxn1 promoter reporter with mutated AP1 response elements; conditions: n=3, p>0.05
# Experimental: From this primary screen, we concentrated on the PYC36-like, AP1-inhibitory Phylomers, and selected 14 initial hits. […] Reporter activity/inhibition was calculated by normalizing Firefly activity to Renilla.
# [3] = tested on: AP1-luciferase reporter; assay: Primary phenotypic screen: PMA-mediated AP1-driven luciferase reporter in transfected U2oS cells; conditions: U2oS cells co-transfected with Phylomer plasmid, PMA 100 nM, read 24 hours later
# Experimental: The mini-library of 3120 individual transfection-ready plasmids was used in a microtitre plate-based transfection assay system (ie, and array-based format) in the U2oS cell line, and the effects of the Phyomers expressed from this mini-library were assessed upon PMA-mediated AP1-driven luciferase reporter expression. The previously identified Phylomer PYC36 ([…] SEQ ID NO: 5)—found by reverse target-based yeast 2-hybrid screening against c-Jun bait, and known to affect AP1-dependent transcription (Mead et al., 2010 J. Neurochem, 112: 258-270)—was used as positive control.
# Briefly, in triplicate plates, 1×10^5 U2oS cells were plated overnight and co-transfected with 100 ng of both AP1-luciferase reporter (Stratagene) and either an individual Phylomer construct from the mini-libary, or positive control (pcDNA3.1/PYC36) or vector control (pcDNA3.1/nV5-DEST-GusB). PMA (100 nM) was used to induce AP1-dependent luciferase expression 6 hours post-transfection, and luciferase activity was measured 24 hours later (SteadlyGlo, Promega).
Substance,PMA-dependent activation of the Srxn1 promoter (Srxn1-luciferase activity) [1],PMA-induced transcription from control Srxn1 promoter with AP1 response elements ablated by mutation [2],AP1-dependent luciferase activity (transcription) [3]
6G8: AP1-inhibitory Phylomer RAEKCGKLF (SEQ ID NO: 10) (Protein fragment of unknown organism) [Phylomer 6G8],inhibited,no effect,–
48E6: AP1-inhibitory Phylomer HSDRTADI (SEQ ID NO: 18) (Protein fragment of unknown organism) [Phylomer 48E6],inhibited,no effect,–
"PYC36: previously identified Phylomer GLQGRRRQGYQSIKP (SEQ ID NO: 5), positive control known to affect AP1-dependent transcription (Protein fragment of unknown organism) [reference compound]",significant inhibition,–,inhibited transcription
